According to BigSolDB 2.1:

c1ccc2c(c1)Cc1ccccc1-2
Conditions	solubility (mole fraction)
in ethanol, 278.98 K	0.00372
in ethanol, 283.99 K	0.00455
in ethanol, 289.01 K	0.00554
in ethanol, 294.08 K	0.00668
in ethanol, 298.35 K	0.00802
in ethanol, 303.36 K	0.00973
in ethanol, 308.77 K	0.0118
in ethanol, 313.17 K	0.0139
in ethanol, 319.27 K	0.0177
in ethanol, 324.95 K	0.0216
in isopropanol, 288.28 K	0.00221
in isopropanol, 293.69 K	0.00313
in isopropanol, 299.5 K	0.00453
in isopropanol, 303.17 K	0.00565
in isopropanol, 309.06 K	0.00802
in isopropanol, 313.78 K	0.0105
in isopropanol, 318.24 K	0.0135
in isopropanol, 323.17 K	0.0179
in isopropanol, 328.25 K	0.0237
in isopropanol, 333.45 K	0.0314
in n-butanol, 284.27 K	0.0059
in n-butanol, 288.82 K	0.00724
in n-butanol, 293.76 K	0.00906
in n-butanol, 298.88 K	0.0113
in n-butanol, 304.06 K	0.0139
in n-butanol, 308.28 K	0.0168
in n-butanol, 313.93 K	0.0212
in n-butanol, 318.16 K	0.0251
in n-butanol, 323.16 K	0.0304
in n-butanol, 328.25 K	0.037
in n-butanol, 333.35 K	0.0458
in n-butanol, 338.35 K	0.0558
in toluene, 283.27 K	0.0634
in toluene, 288.77 K	0.0819
in toluene, 293.72 K	0.102
in toluene, 298.89 K	0.13
in toluene, 303.17 K	0.154
in toluene, 308.81 K	0.201
in toluene, 314.04 K	0.252
in toluene, 319.01 K	0.308
in toluene, 323.28 K	0.367
